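Values below derive from 48-hour exposures of cells grown in 96-well plates, with endpoints linearly interpolated between the two concentrations bracketing the appropriate inhibition level. TGI denotes the concentration required for complete inhibition of growth.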
Legend:
Assay in all cases: growth of human tumour cells (NCI), 48 h
TK-10 renal = system: TK-10 renal
SN12C renal = system: SN12C renal
HOP-18 NSCLC = system: HOP-18 NSCLC
RPMI-8226 leukemia = system: RPMI-8226 leukemia
SK-OV-3 ovarian = system: SK-OV-3 ovarian
HCC-2998 colon = system: HCC-2998 colon
OVCAR-8 ovarian = system: OVCAR-8 ovarian
UACC-257 melanoma = system: UACC-257 melanoma
SF-268 CNS = system: SF-268 CNS
OVCAR-3 ovarian = system: OVCAR-3 ovarian
SK-MEL-28 melanoma = system: SK-MEL-28 melanoma
DLD-1 colon = system: DLD-1 colon
U251 CNS = system: U251 CNS
SNB-75 CNS = system: SNB-75 CNS
K-562 leukemia = system: K-562 leukemia
UO-31 renal = system: UO-31 renal
NCI-H460 lung = system: NCI-H460 lung
MALME-3M melanoma = system: MALME-3M melanoma
KM12 colon = system: KM12 colon
RXF-631 renal = system: RXF-631 renal
A498 renal = system: A498 renal
SF-539 CNS = system: SF-539 CNS
EKVX NSCLC = system: EKVX NSCLC
COLO 205 colon = system: COLO 205 colon
SK-MEL-2 melanoma = system: SK-MEL-2 melanoma
DMS 273 small cell lung = system: DMS 273 small cell lung
SW-620 colon = system: SW-620 colon
SNB-78 CNS = system: SNB-78 CNS
M19-MEL melanoma = system: M19-MEL melanoma
KM20L2 colon = system: KM20L2 colon
SNB-19 CNS = system: SNB-19 CNS
HL-60(TB) leukemia = system: HL-60(TB) leukemia
SK-MEL-5 melanoma = system: SK-MEL-5 melanoma
RXF 393 renal = system: RXF 393 renal
HCT-116 colon = system: HCT-116 colon
LXFL 529 NSCLC = system: LXFL 529 NSCLC
UACC-62 melanoma = system: UACC-62 melanoma
NCI-H522 lung = system: NCI-H522 lung
CAKI-1 renal = system: CAKI-1 renal
OVCAR-4 ovarian = system: OVCAR-4 ovarian
A549 NSCLC = system: A549 NSCLC
786-0 renal = system: 786-0 renal
SR leukemia = system: SR leukemia
HCT-15 colon = system: HCT-15 colon
ACHN renal = system: ACHN renal
HOP-62 NSCLC = system: HOP-62 NSCLC
IGROV1 ovarian = system: IGROV1 ovarian
MOLT-4 leukemia = system: MOLT-4 leukemia
M14 melanoma = system: M14 melanoma
NCI-H226 lung = system: NCI-H226 lung
OVCAR-5 ovarian = system: OVCAR-5 ovarian
CCRF-CEM leukemia = system: CCRF-CEM leukemia
HT29 colon = system: HT29 colon
SF-295 CNS = system: SF-295 CNS
LOX IMVI melanoma = system: LOX IMVI melanoma
XF 498 CNS = system: XF 498 CNS
NCI-H23 lung = system: NCI-H23 lung

Compound `Nc1ncn(C2C=C(CO)C(O)C2O)c(=O)n1` (centres undefined) has a TGI (TK-10 renal) greater than 100 µM, a TGI (SN12C renal) greater than 100 µM and a TGI (HOP-18 NSCLC) greater than 100 µM. For the same compound, the TGI (RPMI-8226 leukemia) was greater than 100 µM, the TGI (SK-OV-3 ovarian) was greater than 100 µM and the TGI (HCC-2998 colon) was greater than 100 µM. The TGI (OVCAR-8 ovarian) was greater than 100 µM, the TGI (UACC-257 melanoma) was greater than 100 µM and the TGI (SF-268 CNS) was greater than 100 µM. It also gave a TGI (OVCAR-3 ovarian) greater than 100 µM, a TGI (SK-MEL-28 melanoma) greater than 100 µM and a TGI (DLD-1 colon) greater than 100 µM. It also gave a TGI (U251 CNS) greater than 100 µM, a TGI (SNB-75 CNS) greater than 100 µM and a TGI (K-562 leukemia) greater than 100 µM. The TGI (UO-31 renal) was greater than 100 µM, the TGI (NCI-H460 lung) was greater than 100 µM and the TGI (MALME-3M melanoma) was greater than 100 µM. It also gave a TGI (KM12 colon) greater than 100 µM, a TGI (RXF-631 renal) greater than 100 µM and a TGI (A498 renal) greater than 100 µM. It also gave a TGI (SF-539 CNS) greater than 100 µM, a TGI (EKVX NSCLC) greater than 100 µM and a TGI (COLO 205 colon) of 74.2 µM. It also gave a TGI (SK-MEL-2 melanoma) greater than 100 µM, a TGI (DMS 273 small cell lung) greater than 100 µM and a TGI (SW-620 colon) greater than 100 µM. It also gave a TGI (SNB-78 CNS) greater than 100 µM, a TGI (M19-MEL melanoma) greater than 100 µM and a TGI (KM20L2 colon) greater than 100 µM. It also gave a TGI (SNB-19 CNS) greater than 100 µM, a TGI (HL-60(TB) leukemia) greater than 100 µM and a TGI (SK-MEL-5 melanoma) greater than 100 µM. It also gave a TGI (RXF 393 renal) greater than 100 µM, a TGI (HCT-116 colon) greater than 100 µM and a TGI (LXFL 529 NSCLC) greater than 100 µM. The TGI (UACC-62 melanoma) was greater than 100 µM, the TGI (NCI-H522 lung) was greater than 100 µM and the TGI (CAKI-1 renal) was greater than 100 µM. The TGI (OVCAR-4 ovarian) was greater than 100 µM, the TGI (A549 NSCLC) was greater than 100 µM and the TGI (786-0 renal) was greater than 100 µM. For the same compound, the TGI (SR leukemia) was greater than 100 µM, the TGI (HCT-15 colon) was greater than 100 µM and the TGI (ACHN renal) was greater than 100 µM. For the same compound, the TGI (HOP-62 NSCLC) was greater than 100 µM, the TGI (IGROV1 ovarian) was greater than 100 µM and the TGI (MOLT-4 leukemia) was greater than 100 µM. The TGI (M14 melanoma) was greater than 100 µM and the TGI (NCI-H226 lung) was greater than 100 µM.

`O=c1[nH]c2c3ccccc3ccc2c2cc3c(cc12)OCO3` gave a TGI (TK-10 renal) greater than 100 µM, a TGI (SN12C renal) greater than 100 µM and a TGI (HOP-18 NSCLC) greater than 100 µM. It also gave a TGI (RPMI-8226 leukemia) greater than 100 µM, a TGI (SK-OV-3 ovarian) greater than 100 µM and a TGI (HCC-2998 colon) greater than 100 µM. It also gave a TGI (OVCAR-8 ovarian) greater than 100 µM, a TGI (UACC-257 melanoma) greater than 100 µM and a TGI (SF-268 CNS) greater than 100 µM. The TGI (OVCAR-3 ovarian) was greater than 100 µM, the TGI (SK-MEL-28 melanoma) was greater than 100 µM and the TGI (DLD-1 colon) was greater than 100 µM. The TGI (U251 CNS) was greater than 100 µM, the TGI (SNB-75 CNS) was greater than 100 µM and the TGI (K-562 leukemia) was greater than 100 µM. It also gave a TGI (UO-31 renal) greater than 100 µM, a TGI (NCI-H460 lung) greater than 100 µM and a TGI (MALME-3M melanoma) greater than 100 µM. It also gave a TGI (KM12 colon) greater than 100 µM, a TGI (RXF-631 renal) greater than 100 µM and a TGI (SF-539 CNS) greater than 100 µM. It also gave a TGI (EKVX NSCLC) greater than 100 µM, a TGI (COLO 205 colon) greater than 100 µM and a TGI (OVCAR-5 ovarian) greater than 100 µM. It also gave a TGI (SK-MEL-2 melanoma) greater than 100 µM, a TGI (DMS 273 small cell lung) greater than 100 µM and a TGI (SW-620 colon) greater than 100 µM. For the same compound, the TGI (SNB-78 CNS) was greater than 100 µM, the TGI (M19-MEL melanoma) was greater than 100 µM and the TGI (KM20L2 colon) was greater than 100 µM. For the same compound, the TGI (SNB-19 CNS) was greater than 100 µM, the TGI (SK-MEL-5 melanoma) was greater than 100 µM and the TGI (RXF 393 renal) was greater than 100 µM. The TGI (HCT-116 colon) was greater than 100 µM, the TGI (CCRF-CEM leukemia) was greater than 100 µM and the TGI (HT29 colon) was greater than 100 µM. For the same compound, the TGI (SF-295 CNS) was greater than 100 µM, the TGI (LOX IMVI melanoma) was greater than 100 µM and the TGI (LXFL 529 NSCLC) was greater than 100 µM. For the same compound, the TGI (XF 498 CNS) was greater than 100 µM, the TGI (UACC-62 melanoma) was greater than 100 µM and the TGI (NCI-H522 lung) was greater than 100 µM. For the same compound, the TGI (CAKI-1 renal) was greater than 100 µM, the TGI (OVCAR-4 ovarian) was greater than 100 µM and the TGI (A549 NSCLC) was greater than 100 µM. For the same compound, the TGI (786-0 renal) was greater than 100 µM, the TGI (HCT-15 colon) was greater than 100 µM and the TGI (ACHN renal) was greater than 100 µM. For the same compound, the TGI (HOP-62 NSCLC) was greater than 100 µM, the TGI (IGROV1 ovarian) was greater than 100 µM and the TGI (NCI-H23 lung) was greater than 100 µM. The TGI (MOLT-4 leukemia) was greater than 100 µM, the TGI (M14 melanoma) was greater than 100 µM and the TGI (NCI-H226 lung) was greater than 100 µM.
